Reference: US5130425A, “Spiro-lactams and analogs thereof useful as aldose reductase inhibitors” (American Home Products Corporation, priority 1991, dated 1992)

What was measured:
aldose reductase = target: T1, aldose reductase (Bos taurus, UniProt P16116); experiment: In vitro aldose reductase inhibition (modified procedure of Hayman and Kinoshita, enzyme from bovine lens); type: biochemical
T1 construct: preparation of the enzyme from bovine lens; from tissue; host or cells: bovine lens
Experimental: Only two minor reagent changes were made: (a) the rinsing mixture was an aqueous 5% (w/v) trichloroacetic acid solution and (b) the stock solution was prepared by dissolving 25 mg of dulcitol in 100 mL of an aqueous trichloroacetic acid solution. [N.B.: For each experiment the average value found in the tissue from rats fed the glucose diet was subtracted from the individual values found in the corresponding tissue in galactose-fed rats to obtain the amount of polyol accumulated.] […] In the present case the procedure of Hayman and Kinoshita was modified in that the final chromatography step was omitted in the preparation of the enzyme from bovine lens.

[1] = test system: galactitol (dulcitol) accumulation in tissues of galactosemic rats; experiment: Galactosemic rat test: lowering of galactitol (dulcitol) accumulation in lens, sciatic nerve and diaphragm; type: in vivo, rat (Sprague-Dawley, male); parameters: key to % Lowering Galactitol Accumulation In vivo, L: NS: not significant; details: 4 days, vs untreated galactosemic rats; for % Lowering Galactitol Accumulation In vivo, D: diaphragm; for % Lowering Galactitol Accumulation In vivo, L: lens
Source text: The aldose reductase inhibiting property of the compounds of this invention and the utilization of the compounds in preventing, diminishing and alleviating diabetic complications are demonstrable in experiments using galactosemic rats, see Dvornik et al., Science, 182, 1146 (1973). Such experiments are exemplified hereinbelow after the listing of the following general comments pertaining to these experiments:
(a) Four or more groups of six male rats, 50-70 g, Sprague-Dawley strain, were used. The first group, the control group, was fed a mixture of laboratory chow (rodent Laboratory Chow, Purina) and glucose at 20% (w/w %) concentration. An untreated galactosemic group was fed a similar diet in which galactose was substituted for glucose. The third group was fed a diet prepared by mixing a given amount of the test compound with the galactose containing diet. The concentration of galactose in the diet of the treated groups was the same as that for the untreated galactosemic group.
(b) After four days, the animals were killed by euthanization. Both the lens and sciatic nerve were removed, weighed and stored frozen for polyol determination.
(c) The polyol determination was performed by a modification of the procedure of M. Kraml and L. Cosyns, Clin. Biochem., 2,373 (1969). Only two minor reagent changes were made: (a) the rinsing mixture was an aqueous 5% (w/v) trichloroacetic acid solution and (b) the stock solution was prepared by dissolving 25 mg of dulcitol in 100 mL of an aqueous trichloroacetic acid solution. [N.B.: For each experiment the average value found in the tissue from rats fed the glucose diet was subtracted from the individual values found in the corresponding tissue in galactose-fed rats to obtain the amount of polyol accumulated.] The aldose reductase inhibiting effects of the compounds of formula (I) were also tested by employing an in vitro testing procedure similar to that described by S. Hayman and J. H. Kinoshita, J. Biol. Chem., 240, 877 (1965). In the present case the procedure of Hayman and Kinoshita was modified in that the final chromatography step was omitted in the preparation of the enzyme from bovine lens.
The figures under L, N, and D represent the percentage decrease of dulcitol accumulation in the tissues of the lens, sciatic nerve, and diaphragm, respectively, for treated rats as compared to untreated rats.

[2] = column headed 10^5 (concentration unit not given)
[3] = column headed 10^-6 (concentration unit not given)
[4] = column headed 10^-7 (concentration unit not given)

| Structure (SMILES) | % Inhibition In Vitro (aldose reductase; [2]) | % Inhibition In Vitro (aldose reductase; [3]) | % Inhibition In Vitro (aldose reductase; [4]) | % Lowering Galactitol Accumulation In vivo, D ([1]; 28 mg/kg/day in diet) | % Lowering Galactitol Accumulation In vivo, L ([1]; 28 mg/kg/day in diet) | % Lowering Galactitol Accumulation In vivo, D ([1]; 11 mg/kg/day in diet) | % Lowering Galactitol Accumulation In vivo, D ([1]; 49 mg/kg/day in diet) | % Lowering Galactitol Accumulation In vivo, L ([1]; 11 mg/kg/day in diet) | % Lowering Galactitol Accumulation In vivo, L ([1]; 49 mg/kg/day in diet) |
| --- | --- | --- | --- | --- | --- | --- | --- | --- | --- |
| CN1C(=O)c2ccc(Br)cc2C2(CC(=O)N2)C1=O (stereo not drawn) [Br CH3, 6'-bromo-2'-methylspiro[azetidine-2,4'(1'H)-isoquinoline]-1',3',4(2'H)-trione] | 96% | 77% | 16% | 86% | 36% | – | – | – | – |
| CN1C(=O)c2ccc(Cl)cc2C2(CC(=O)N2)C1=O (stereo not drawn) [Cl CH3, 6'-chloro-2'-methylspiro[azetidine-2,4'(1'H)-isoquinoline]-1',3',4(2'H)-trione] | 84% | 75% | 22% | – | – | 70% | 82% | NS | 66% |
